The target of one data set is NOX2 (Homo sapiens, UniProt P04839). Description: In cellulo NOX2 activity in NOX2-overexpressing PLB-985 cells, cytochrome c reduction. Type of data set: cell-based. Particulars: for IC50: intact PMA-stimulated cells, cytochrome c 200 μM. Also noted: NOX2 was expressed as native protein in X-CGD PLB-985 cells transduced with the RD114 pseudotyped MFGS-NOX2 vector; expressed in transfected cells; host or cells: X-CGD PLB-985 cells transduced with MFGS-NOX2 vector. As for the experimental part:
Measurement of human NOX2 activity in cells was performed by a cytochrome c (200 μM) reduction assay. Superoxide production of intact PLB-985 cells (3 × 10^5 cells) was measured after PMA stimulation (5 μM) as reported.[40],[42] The compounds (0.04–40 μM) were added to the prestimulated cells and incubated for 1 h at 37 °C and 5% CO2, 120 rpm (New Brunswick S41i incubator shaker, Eppendorf). The absorbance at 550 nm was followed at 37 °C over a time course of 20 min in a ClarioStar plate reader (BMG Labtech).

The target of a further data set is T1, human MAOA (Homo sapiens, UniProt P21397).
T1 construct: made in house; host or cells: Pichia pastoris
T1 sequence (P21397 1-527): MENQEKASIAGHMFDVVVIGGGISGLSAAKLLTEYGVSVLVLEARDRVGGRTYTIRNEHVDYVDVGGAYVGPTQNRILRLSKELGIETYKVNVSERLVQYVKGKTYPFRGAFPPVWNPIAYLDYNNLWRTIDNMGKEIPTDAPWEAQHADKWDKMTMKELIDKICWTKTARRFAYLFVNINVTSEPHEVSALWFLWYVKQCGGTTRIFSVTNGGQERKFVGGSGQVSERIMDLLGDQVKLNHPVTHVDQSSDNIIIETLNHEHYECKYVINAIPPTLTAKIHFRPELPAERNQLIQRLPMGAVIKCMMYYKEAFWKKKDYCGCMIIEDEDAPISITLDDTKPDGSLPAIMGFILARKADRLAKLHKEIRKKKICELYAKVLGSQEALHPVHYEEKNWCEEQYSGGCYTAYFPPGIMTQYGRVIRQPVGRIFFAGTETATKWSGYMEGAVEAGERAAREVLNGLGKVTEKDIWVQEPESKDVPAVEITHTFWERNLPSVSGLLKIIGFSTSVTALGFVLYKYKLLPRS
Description: Purified MAOA, Amplex Red/horseradish peroxidase coupled assay. Format: biochemical. Particulars: 70 nM MAOA, 1 mM kynuramine. As for the experimental part:
IC50 values on human MAOA and human MAOB were determined using the Amplex Red/horseradish peroxidase coupled assay. […] Measurements were performed using a ClarioStar plate reader (excitation 572 nm and emission 583 nm) (BMG Labtech). IC50 values were obtained by fitting the percentage of inhibition versus log(inhibitor concentration) using GraphPad software 7.0. The covalent modification of the flavin upon the reaction with the propargylamine-containing inhibitors was monitored spectrophotometrically using a diode array UV/visible spectrophotometer (Agilent Technologies). […] The cofactor covalent modification was monitored over time following the shift of the enzyme-bound flavin (peaks at 370 and 456 nm) to 410 nm (ε410 = 23,500 M^–1 cm^–1) (Figure S10).

Data set [1] can be described thus: Mass spectrometric analysis of GSH reactivity. Particulars: GSH 10 µM and compound 10 µM (1:1), ammonium acetate 200 mM, pH 7.4. As for the experimental part:
Reactivity between 9a and GSH was measured via mass spectrometry on a Q Exactive UHMR hybrid quadrupole-Orbitrap mass spectrometer (Thermo Fisher) with positive polarity. The instrument parameters used for MS spectra collection were the following: capillary voltage, 1.2 kV; scan range from 350 to 2000 m/z; HCD collision voltage, 0 V; source fragmentation, 0 V; in-source trapping, 0 V. The ion transfer optics was set as follows: injection flatapole, 5 V; inner-flatapole lens, 4 V; bent flatapole, 2 V; transfer multipole, 0 V. The resolution of the instrument was 200,000 at m/z = 400, the nitrogen pressure in the HCD cell was maintained at approximately 9.8 × 10^–11 mbar, and the source temperature was kept at 100 °C. Solutions for flow injection analysis were constituted by dissolving each compound in LC-MS-grade MeOH.

The next data set relates to BV2 cells. Description: qRT-PCR of iNOS, IL-1β and IL-6 transcripts in BV2 cells. Format: cell-based, murine. As for the experimental part:
BV2 murine microglial cells were cultured in DMEM supplemented with 10% heat-inactivated FBS, 100 IU/mL penicillin G, […] streptomycin, and […] amphotericin B and grown at 37 °C in 5% CO2 and a humidified atmosphere. […]
BV2 cells were lysed in a Trizol reagent for isolation of RNA. A reverse transcription reaction was performed in a thermocycler (MJMini personal thermal cycler; Biorad) using an IScript Reverse Transcription Supermix (Biorad) according to the manufacturer’s protocol, under the following conditions: incubation at 25 ° C for 5 min, reverse transcription at 42 ° C for 30 min, and inactivation at 85 ° C for 5 min. Real-time PCR (rtPCR) was carried out in an I-Cycler IQ Multicolor rtPCR detection system (Biorad) using a SsoFast EvaGreen Supermix (Biorad) according to the manufacturer’s instructions. The PCR protocol consisted of 40 cycles of denaturation at 95 ° C for 30 s and annealing/extension at 60 ° C for 30 s. For quantification analysis, the comparative threshold cycle (Ct) method was used. The Ct values from each gene were normalized to the Ct value of GAPDH in the same RNA samples. Relative quantification was performed using the 2^–ΔΔCt method (Schmittgen and Livak, 2008) and expressed as a fold change in arbitrary values. Primers used are as follows: • iNOS fw: […]; rev: […]. • IL-1β fw: […]; rev: […]. • IL-6 fw: […]; rev: […].
A general note: Quantitative PCR measures a nucleic acid by following its amplification.

[2] abbreviates: 10 μM, LPS/IFN-γ, 48 h compound treatment.

Entries after “also recorded” stand apart in the source; their conditions may differ. Some results are limits rather than exact numbers.

One may read the IC50 as the concentration needed to halve the response being measured. Higher therefore signals weaker potency.

NOX2, sequence (P04839 2-570 limits assumed): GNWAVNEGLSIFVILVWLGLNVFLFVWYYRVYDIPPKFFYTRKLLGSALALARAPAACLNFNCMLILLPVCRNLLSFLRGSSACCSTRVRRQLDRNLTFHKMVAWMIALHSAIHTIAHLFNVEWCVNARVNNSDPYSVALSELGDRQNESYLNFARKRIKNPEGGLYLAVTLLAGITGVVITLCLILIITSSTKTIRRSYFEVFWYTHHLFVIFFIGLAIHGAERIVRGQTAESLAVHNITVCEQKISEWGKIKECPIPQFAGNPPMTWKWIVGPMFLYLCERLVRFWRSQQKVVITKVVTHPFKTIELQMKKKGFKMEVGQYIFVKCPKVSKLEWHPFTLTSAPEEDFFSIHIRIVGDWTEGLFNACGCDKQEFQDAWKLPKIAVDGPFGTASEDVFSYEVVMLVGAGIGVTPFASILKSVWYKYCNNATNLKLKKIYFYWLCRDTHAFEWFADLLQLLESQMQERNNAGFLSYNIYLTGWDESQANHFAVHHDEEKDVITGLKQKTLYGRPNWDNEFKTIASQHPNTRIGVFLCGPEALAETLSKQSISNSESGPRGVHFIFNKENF
NOX2, sequence (P13498 2-195 partner limits assumed): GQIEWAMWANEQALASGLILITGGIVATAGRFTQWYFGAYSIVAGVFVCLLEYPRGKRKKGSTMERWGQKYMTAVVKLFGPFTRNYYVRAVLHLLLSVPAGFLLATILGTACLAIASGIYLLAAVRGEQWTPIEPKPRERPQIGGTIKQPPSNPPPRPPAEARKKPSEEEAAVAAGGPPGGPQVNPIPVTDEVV
NOX2, sequence (P19878 whole entry partner): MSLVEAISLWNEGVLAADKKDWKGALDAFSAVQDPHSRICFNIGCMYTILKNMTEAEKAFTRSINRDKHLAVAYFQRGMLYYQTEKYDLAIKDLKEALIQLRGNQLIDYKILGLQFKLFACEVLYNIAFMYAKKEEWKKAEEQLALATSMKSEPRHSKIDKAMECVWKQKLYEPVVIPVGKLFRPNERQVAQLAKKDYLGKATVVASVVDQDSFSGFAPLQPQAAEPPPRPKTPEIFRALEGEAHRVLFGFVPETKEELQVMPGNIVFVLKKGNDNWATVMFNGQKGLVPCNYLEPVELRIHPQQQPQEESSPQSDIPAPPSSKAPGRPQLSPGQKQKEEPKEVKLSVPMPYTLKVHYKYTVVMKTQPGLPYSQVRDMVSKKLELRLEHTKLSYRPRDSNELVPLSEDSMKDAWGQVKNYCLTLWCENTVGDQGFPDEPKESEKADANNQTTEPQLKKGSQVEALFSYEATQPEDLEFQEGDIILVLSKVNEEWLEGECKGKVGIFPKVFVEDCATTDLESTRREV
NOX2, sequence (P14598 whole entry partner): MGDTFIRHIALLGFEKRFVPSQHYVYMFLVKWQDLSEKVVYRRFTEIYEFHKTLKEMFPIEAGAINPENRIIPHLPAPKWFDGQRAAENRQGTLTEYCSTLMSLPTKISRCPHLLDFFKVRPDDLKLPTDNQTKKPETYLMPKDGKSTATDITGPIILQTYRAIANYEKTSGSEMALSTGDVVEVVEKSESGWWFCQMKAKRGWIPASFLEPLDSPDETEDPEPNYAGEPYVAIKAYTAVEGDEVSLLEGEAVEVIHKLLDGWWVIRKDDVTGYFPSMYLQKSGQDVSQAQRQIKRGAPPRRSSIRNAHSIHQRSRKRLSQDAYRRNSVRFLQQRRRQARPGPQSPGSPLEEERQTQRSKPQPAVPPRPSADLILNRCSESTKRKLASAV

Regarding `CCCNC(=O)c1ccc(Cn2nnc3c(Sc4nc5ccccc5o4)ncnc32)cc1` [Compound 8a, (4-((7-Benzo[d]oxazol-2-yl-thio)-3H-[1,2,3]triazole[4,5-d]pyrimidin-3-yl)methyl)-N-(propyl)benzamide], at NOX2, the half-maximal inhibitory concentration (IC50) came to 2.81 ± 0.88 µM. Besides, at human MAOA, the concentration for half-maximal inhibition (IC50) is greater than 100 µM and the “IC50 Purified MAOA” value is “ineffective; also recorded: Not detected”.

On to `C#CCN(C)Cc1ccc(Cn2nnc3c(Sc4nc5ccccc5o4)ncnc32)cc1` [Compound 9a, N-(4-((7-(Benzo[d]oxazol-2-ylthio)-3H-[1,2,3]triazolo[4,5-d]pyrimidin-3-yl)methyl)benzyl)-N-methylprop-2-yn-1-amine], for which the “adduct formation with glutathione” value in data set [1] is “readily reacted with GSH; also recorded: able to form an adduct with glutathione”. Moreover, in the data set with BV2 cells (setting [2]), the “decrease in IL-1β mRNA level” value turned out to be 4 fold, the “decrease in IL-6 mRNA level” value is given as 4 fold and the “decrease in iNOS mRNA level” value is listed as “over 10 fold”. Moreover, in the data set with BV2 cells (cells pre-stimulated with LPS/IFN-γ for 24h, then 10 µM compound for 24 h), the “effects on iNOS, IL-1β and IL-6 mRNA without inhibitor pretreatment” value is on record as “negligible”. Moreover, at NOX2 (PLB-985 cells), the “potency against NOX2 in cellulo relative to VAS2870 (more potent)” value came out at 2 fold. On NOX2, this compound gave an IC50 of 0.135 ± 0.02 µM. For the same compound, the IC50 at human MAOA was determined as 59 ± 5.9 µM.

Take `C#CCNC(=O)c1ccc(Cn2nnc3c(Sc4nc5ccccc5o4)ncnc32)cc1` [Compound 8b, (4-((7-Benzo[d]oxazol-2-yl-thio)-3H-[1,2,3]triazole[4,5-d]pyrimidin-3-yl)methyl)-N-(prop-2-in-1-yl)benzamide]: the half-maximal inhibitory concentration (IC50) on NOX2 is 17.6 ± 3.4 µM; at human MAOA, 41.6 ± 3.7 µM.

For the origin of these results see PMC11956017, “Design of Benzyl-triazolopyrimidine-Based NADPH Oxidase Inhibitors Leads to the Discovery of a Potent Dual Covalent NOX2/MAOB Inhibitor” (Journal of Medicinal Chemistry, 2025).
